Test results: patent publication US5182265A, “Pharmacologically active peptide derivatives and pharmaceutical preparations containing them” (SPA Societa' Prodotti Antibiotici S.p.A., priority 1989, dated 1993)
Structures can show the parent of a compound that is named as a salt. Where a SMILES comes first, the peptide text is derived from it.

Assay: Water solubility of the salts (qualitative remark in the preparation)
Type: physicochemical
Conditions: qualitative description of the isolated salt
Procedure: H-Thr-Asp-D-Tyr-OH is dissolved in 5 volumes of water, and the solution is added with an equivalent amount of 1N HCl.
The solution is concentrated to small volume under vacuum and added with acetone.

Row | water solubility of the isolated powder | Compound
1 | very water soluble | C[C@@H](O)[C@H](N)C(=O)N[C@@H](CC(=O)O)C(=O)N[C@H](Cc1ccc(O)cc1)C(=O)O [H-Thr-Asp-D-Tyr-OH hydrochloride] (HELM PEPTIDE1{T.D.[dY]}$$$$V2.0)
2 | freely water soluble | C[C@@H](O)[C@H](N)C(=O)N[C@@H](CC(=O)O)C(=O)N[C@@H](Cc1ccc(O)cc1)C(=O)O [H-Thr-Asp-Tyr-OH lysine salt] (H-Thr-Asp-Tyr-OH)
